Source: publication PMC4493641, “Enhancement of E. coli acyl-CoA synthetase FadD activity on medium chain fatty acids” (PeerJ, 2015)

Key:
[1] = molecular target: T1, FadD (Escherichia coli, UniProt P69451); assay: coupled AMP production assay (myokinase / pyruvate kinase / lactate dehydrogenase, NADH oxidation at […] nm); format: biochemical; settings: 2.5 mM ATP, 0.5 mM CoA, 8 mM MgCl2, 0.1% Triton X-100, pH 7.5, 30 °C; partially purified
T1 construct: full-length, C-terminal His6 tag kept, pETDuet-1 (TJF032), expressed in E. coli BL21*(DE3) delta-fadD, partially purified by Ni-NTA
T1 sequence (P69451 1-561): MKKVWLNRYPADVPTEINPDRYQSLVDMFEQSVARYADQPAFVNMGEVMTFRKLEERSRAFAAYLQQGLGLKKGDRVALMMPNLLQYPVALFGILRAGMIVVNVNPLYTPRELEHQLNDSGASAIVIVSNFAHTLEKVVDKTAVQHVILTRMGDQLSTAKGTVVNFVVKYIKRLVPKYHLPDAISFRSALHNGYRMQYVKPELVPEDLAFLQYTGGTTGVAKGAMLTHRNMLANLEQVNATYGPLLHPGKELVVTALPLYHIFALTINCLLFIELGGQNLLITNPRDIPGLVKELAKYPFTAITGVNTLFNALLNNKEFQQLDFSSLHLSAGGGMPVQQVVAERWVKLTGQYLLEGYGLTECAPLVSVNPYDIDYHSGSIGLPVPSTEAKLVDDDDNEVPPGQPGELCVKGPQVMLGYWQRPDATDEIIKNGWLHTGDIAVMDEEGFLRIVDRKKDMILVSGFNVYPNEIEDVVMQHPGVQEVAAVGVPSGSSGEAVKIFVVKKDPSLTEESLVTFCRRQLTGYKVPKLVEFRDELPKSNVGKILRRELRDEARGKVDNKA

[2] = substrate: CCCCCCCC(=O)O; assay: purified protein; settings: 2.5 mM ATP, 0.5 mM CoA, 8 mM MgCl2, 0.1% Triton X-100, pH 7.5, 30 °C, partially purified

Question: Which Km [1] does the source give for `CCCCCCCC/C=C\CCCCCCCC(=O)O` [oleate] here?
Answer: The Km was “Vmax (A) and Km (B) values for the indicated substrates”.

B1: FadD (Escherichia coli K-12) (protein)
chain: MKKVWLNRYPADVPTEINPDRYQSLVDMFEQSVARYADQPAFVNMGEVMTFRKLEERSRAFAAYLQQGLGLKKGDRVALMMPNLLQYPVALFGILRAGMIVVNVNPLYTPRELEHQLNDSGASAIVIVSNFAHTLEKVVDKTAVQHVILTRMGDQLSTAKGTVVNFVVKYIKRLVPKYHLPDAISFRSALHNGYRMQYVKPELVPEDLAFLQYTGGTTGVAKGAMLTHRNMLANLEQVNATYGPLLHPGKELVVTALPLYHIFALTINCLLFIELGGQNLLITNPRDIPGLVKELAKYPFTAITGVNTLFNALLNNKEFQQLDFSSLHLSAGGGMPVQQVVAERWVKLTGQYLLEGYGLTECAPLVSVNPYDIDYHSGSIGLPVPSTEAKLVDDDDNEVPPGQPGELCVKGPQVMLGYWQRPDATDEIIKNGWLHTGDIAVMDEEGFLRIVDRKKDMILVSGFNVYPNEIEDVVMQHPGVQEVAAVGVPSGSSGEAVKIFVVKKDPSLTEESLVTFCRRQLTGYKVPKLVEFRDELPKSNVGKILRRELRDEARGKVDNKA
Question: How did the Km [2] turn out when B1 was run?
Answer: Its Km is 422 µM.
